Measurements reported in patent EP0618222A2, “Dipeptid derivatives of 5-amino-4-hydroxy-hexanoic acid” (CIBA-GEIGY AG, priority 1993, dated 1994).

Legend:
[1] = Blood level in mice after administration (HPLC of blood/plasma); assay type: in vivo, Mäuse; conditions: po; mouse blood, peroral 120 mg/kg, 30 min after administration; read-out: Konzentration
Method: Die pharmakodynamischen Eigenschaften der Verbindungen der Formel können beispielsweise wie folgt belegt werden: • Die zu untersuchenden Verbindungen der Formel oder (beispielsweise als Kontrolle) die entsprechende Verbindung der Formel werden in einem organischen Lösungsmittel, wie Dimethylsulfoxid (DMSO), in einer Konzentration von 240 mg/ml gelöst. Die resultierenden Lösungen werden mit 20% (w/v) Hydroxypropyl-ßcyclodextrin (HPßCD) verdünnt, um eine Konzentration der Testsubstanz von 12 mg/ml zu erhalten. Diese Lösung wird Mäusen oral durch künstliche Sonderernährung in einer Dosis von 120 mg/kg verabreicht. 30, 60, 90 und 120 min nach der Verabreichung werden die Tiere getötet und Blut entnommen. Pro Zeitpunkt werden drei bis vier Tiere untersucht. Das Blut wird heparinisiert und für die Analyse durch eine der folgenden beiden Methoden vorbereitet: Nach der ersten Methode wird Vollblut deproteinisiert durch Mischen eines Volumenteils Blut mit einem Volumenteil Acetonitril; nach Zentrifugation (10 000 g, 5 min) wird der Überstand durch Reversed-Phase-HPLC untersucht. Nach der zweiten Methode werden 2 µl einer 1 mM Lösung eines internen Standards (wie einer anderen Verbindung der Formel I) zu 0,5 ml heparinisiertem Blut zugegeben. Das Blut wird zentrifugiert (10 000 g, 5 min), und das Plasma mit demselben Volumen Acetonitril vermischt. […]

HIV-1 = test: Protection of MT-2 cells against HIV-1 infection (reverse transcriptase activity in supernatant); assay type: cell-based; conditions: Human immunodeficiency virus 1, MT2, 96 h; lowest concentration lowering RT activity by 90 %; MT-2 cells with HIV-1, 4 days incubation; read-out: ED90 (the source's name)
Description: In einem weiteren Test kann gezeigt werden, dass die Verbindungen der vorliegenden Erfindung Zellen, die normalerweise von HIV infiziert werden, vor einer solchen Infektion schützen oder zumindest eine solche Infektion verlangsamen. Dabei wird die menschliche T-Zell-Leukämie Zellinie MT-2 (Science 229, 563 (1985)), die empfindlich gegen den zytopathogenen Effekt von HIV ist, mit HIV-1 allein oder mit HIV-1 in Gegenwart einer der erfindungsgemässen Verbindungen inkubiert und nach einigen Tagen die Lebensfähigkeit der so behandelten Zellen beurteilt. Hierzu werden die MT-2-Zellen in RPMI 1640-Medium (Gibco, Schweiz; RPMI 1640 enthält ein Aminosäurengemisch ohne L-Gln), das mit 10% hitzeinaktiviertem fetalem Kälberserum, L-Glutamin, Hepes (2-[4-(2-Hydroxyethyl)-1-piperazino]-ethansulfonsäure) und Standardantibiotika supplementiert ist, bei 37 °C in befeuchteter Luft mit 5% CO2 gehalten. 50 µl der jeweiligen Testverbindung in Kulturmedium und 100 µl HIV-1 in Kulturmedium (800 TCID50/ml) (TCID50 = Tissue Culture Infectious Dose 50 = Dosis, die 50% der MT-2-Zellen infiziert) werden zu 4x1 0^3 exponentiell wachsenden MT-2-Zellen in 50 µl Kulturmedium pro Vertiefung auf 96-Loch-Mikrotiterplatten gegeben. Parallele Ansätze auf einerweiteren Mikrotiterplatte mit Zellen und Testverbindung erhalten 100 µl Kulturmedium ohne Virus. […]

In the case of `COc1ccc(C[C@H](C[C@H](O)[C@H](Cc2ccccc2)NC(=O)OC(C)(C)C)C(=O)N[C@H](C(=O)N[C@@H](Cc2ccccc2)C(=O)N2CCOCC2)C(C)C)cc1` [5(S)-(tert-Butoxycarbonylamino)-4(S)-hydroxy-2(R)-(p-methoxy-phenylmethyl)-6-phenyl-hexanoyl-(L)-valyl-(L)-phenyl-alanyl-morpholin-4-ylamid], the concentration at 0.5 h [1] is reported as 10.8 µM and the EC90 (HIV-1) is reported as 100 nM.
